Among the data in ChEMBL document CHEMBL1153141, “Anti-tumor activity of a new series of benzoxazepine derivatives in breast cancer” (Bioorg Med Chem Lett, 2010) are IC50 and Activity values, retold here.

One data set concerns DU-145. Kind of data set: Cytotoxicity against human DU145 cells after 18 hrs by MTT assay. It counts as functional, cell-based. The conditions noted are these: DU-145, 18 h.
Another data set relates to Ishikawa. Briefly: Cytotoxicity against human Ishikawa cells after 18 hrs by MTT assay. The class given is functional, cell-based.
Data set [1] has as its system MCF7. Kind of data set: Cytotoxicity against human MCF7 cells after 18 hrs by MTT assay. The class given is functional, cell-based. The note with it: MCF7, 18 h.
Another data set has as its system MDA-MB-231. Briefly: Cytotoxicity against human MDA-MB-231 cells after 18 hrs by MTT assay. The conditions noted are these: MDA-MB-231, 18 h. It counts as functional, cell-based.
The subject of data set [2] is MCF7. Briefly: Antitumor activity against human MCF7 cells xenografted in mouse assessed as tumor volume regression at 8 to 16 mg/kg, po for 30 days. The class given is functional, organism-based.
Data set [3] deals with MCF7. Kind of data set: Induction of apoptosis in human MCF7 cells at 5 to 10 uM after 24 hrs using annexin V-propidium iodide staining by flow cytometry relative to control. It counts as functional, cell-based.
Data set [4] deals with MCF7. Kind of data set: Cell cycle arrest in human MCF7 cells assessed as accumulation at G0/G1 phase at 5 to 10 uM after 24 hrs using […] by flow cytometry relative to control. It counts as functional, cell-based.
The next data set deals with HEK293. Kind of data set: Cytotoxicity against HEK293 cells after 18 hrs by MTT assay. It counts as cell-based. The conditions noted are these: human, hek293, 18 h.

The structures appear in SMILES notation. Counter-ions that a name gives are not always drawn. The source made the active and inactive calls. No cut-off for these calls is given here.

Turning to `Cc1ccc(S(=O)(=O)N2Cc3ccccc3OC[C@@H]2Cc2ccccc2)cc1`, the IC50 in the data set with DU-145, in the data set on Ishikawa, in the data set with MCF7 [1] and with MDA-MB-231 was above 50 µM in each case.
As to `Cc1ccc(S(=O)(=O)N2Cc3ccccc3OC[C@@H]2C)cc1`, the IC50 in the data set with DU-145, in the data set with Ishikawa, in the data set with MCF7 [1] and with MDA-MB-231 was above 50 µM in each case.
As to `Cc1ccc(S(=O)(=O)N2Cc3ccccc3OC[C@@H]2Cc2ccc(O)cc2)cc1`, the values for the IC50 in the data set on Ishikawa, in the data set on MCF7 [1] and in the data set with MDA-MB-231 were 34 µM, 29.1 µM and above 50 µM, respectively.
Regarding `CCN(CC)CCOc1ccc(C[C@H]2COc3ccccc3CN2S(=O)(=O)c2ccc(C)cc2)cc1`, the outcome in the data set on MCF7 [2], with MCF7 [3] and with MCF7 [4] was Active. Besides, the half-inhibitory concentration (IC50) was determined as 23 µM in the data set with DU-145, 22.6 µM with Ishikawa, 6.53 µM in the data set on MCF7 [1] and 17.4 µM in the data set on MDA-MB-231.
Take `COc1ccc2c(c1)OC[C@H](Cc1ccc(OCCN3CCOCC3)cc1)N(S(=O)(=O)c1ccc(C)cc1)C2`: the 50% inhibitory concentration (IC50) in the data set on DU-145, in the data set with Ishikawa, in the data set with MCF7 [1] and in the data set with MDA-MB-231 was above 50 µM each time.
As to `Cc1ccc(S(=O)(=O)N2Cc3ccccc3OC[C@H]2Cc2ccccc2)cc1`, the IC50 in the data set with DU-145, in the data set on Ishikawa, with MCF7 [1] and in the data set with MDA-MB-231 was above 50 µM throughout.
Regarding `COc1cccc2c1OC[C@H](Cc1ccc(OCCN3CCOCC3)cc1)N(S(=O)(=O)c1ccc(C)cc1)C2`, the 50% inhibitory concentration (IC50) with DU-145, in the data set with Ishikawa, in the data set with MCF7 [1] and with MDA-MB-231 was above 50 µM throughout.
In the case of `COc1cccc2c1OC[C@H](Cc1ccc(OCCN3CCCCC3)cc1)N(S(=O)(=O)c1ccc(C)cc1)C2`, the IC50 in the data set on DU-145, in the data set on Ishikawa, in the data set on MCF7 [1] and in the data set on MDA-MB-231 was above 50 µM throughout.
Regarding `Cc1ccc(S(=O)(=O)N2Cc3ccccc3OC[C@@H]2CC(C)C)cc1`, the IC50 in the data set with DU-145, in the data set with Ishikawa, in the data set with MCF7 [1] and in the data set with MDA-MB-231 was above 50 µM throughout.
Consider `CCN(CC)CCOc1ccc(C[C@H]2COc3c(cccc3OC)CN2S(=O)(=O)c2ccc(C)cc2)cc1`, for which the IC50 in the data set with DU-145, in the data set with Ishikawa, in the data set on MCF7 [1] and with MDA-MB-231 was above 50 µM in each case.
`CC/C(=C(\c1ccccc1)c1ccc(OCCN(C)C)cc1)c1ccccc1` [TAMOXIFEN CITRATE]: the IC50 in the data set on DU-145 is 15.2 µM; in the data set with Ishikawa, 12.5 µM; in the data set on MCF7 [1] it was 10.2 µM; in the data set on MDA-MB-231 it was 12.3 µM.
Taken in the same sequence, the figures for `COc1cccc2c1OC[C@H](Cc1ccc(OCCN(C)C)cc1)N(S(=O)(=O)c1ccc(C)cc1)C2` were above 50 µM, above 50 µM, above 50 µM and above 50 µM.
Take `COc1ccc2c(c1)OC[C@H](Cc1ccc(OCCN(C)C)cc1)N(S(=O)(=O)c1ccc(C)cc1)C2`: the IC50 in the data set on DU-145, in the data set with Ishikawa, in the data set on MCF7 [1] and in the data set on MDA-MB-231 was above 50 µM each time.
For `COc1ccc2c(c1)OC[C@H](Cc1ccc(OCCN3CCCCC3)cc1)N(S(=O)(=O)c1ccc(C)cc1)C2`, the IC50 in the data set with DU-145, with Ishikawa, in the data set with MCF7 [1] and with MDA-MB-231 was above 50 µM each time.
As to `Cc1ccc(S(=O)(=O)N2Cc3ccccc3OC[C@@H]2Cc2c[nH]c3ccccc23)cc1`, the IC50 with DU-145, with Ishikawa, in the data set on MCF7 [1] and with MDA-MB-231 was above 50 µM in each case.
On to `COc1ccc2c(c1)OC[C@H](Cc1ccc(OCCN3CCCC3)cc1)N(S(=O)(=O)c1ccc(C)cc1)C2`, for which the IC50 with DU-145, with Ishikawa, in the data set on MCF7 [1] and with MDA-MB-231 was above 50 µM throughout.
Consider `COc1cccc2c1OC[C@H](Cc1ccc(OCCN3CCCCCC3)cc1)N(S(=O)(=O)c1ccc(C)cc1)C2`, for which the IC50 with DU-145, in the data set with Ishikawa, in the data set with MCF7 [1] and with MDA-MB-231 was above 50 µM in each case.
With `Cc1ccc(S(=O)(=O)N2Cc3ccccc3OC[C@@H]2Cc2ccc(OCCN3CCCC3)cc2)cc1`, the IC50 was 30 µM in the data set with DU-145, 23.8 µM with Ishikawa, 9.34 µM in the data set with MCF7 [1] and 13 µM in the data set with MDA-MB-231. In addition, the Activity result with HEK293 was “Non-toxic”.
Take `Cc1ccc(S(=O)(=O)N2Cc3ccccc3OCC2Cc2ccc(OCCN3CCOCC3)cc2)cc1` (stereo unspecified): the IC50 in the data set on DU-145, with Ishikawa, in the data set with MCF7 [1] and with MDA-MB-231 was above 50 µM each time.
Consider `Cc1ccc(S(=O)(=O)N2Cc3ccccc3OC[C@@H]2C(C)C)cc1`, for which the half-inhibitory concentration (IC50) with DU-145, in the data set with Ishikawa, in the data set on MCF7 [1] and with MDA-MB-231 was above 50 µM each time.
Turning to `CCC(C)[C@H]1COc2ccccc2CN1S(=O)(=O)c1ccc(C)cc1` (stereo partly specified), the IC50 in the data set with DU-145, with Ishikawa, in the data set on MCF7 [1] and in the data set with MDA-MB-231 was above 50 µM in each case.
With `COc1cccc2c1OC[C@H](Cc1ccc(OCCN3CCCC3)cc1)N(S(=O)(=O)c1ccc(C)cc1)C2`, the IC50 with DU-145, in the data set on Ishikawa, in the data set on MCF7 [1] and with MDA-MB-231 was above 50 µM each time.
